Some test systems named below: A498; EKVX; HCT-116; HCT-15; HOP-62; IGROV-1; KM12; MDA-MB-231; MDA-MB-435; MOLT-4; NCI-H460; OVCAR-5; OVCAR-8; SK-MEL-2; SN12C; SNB-75; U-251; OVCAR-4.
Common to all, as to experiment: NCI-60 cell line screen, 48 h

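Assay format: 96-well plates, 48-hour exposure. GI50 marks 50% less growth.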 Calls of active or inactive are those of the source. No stated cut-off is given here; in the data, active = GI50 up to about 1.1 µM and inactive = higher. A value given as a limit tells only on which side of the number the result lay.

Regarding `O=P(O)(O)c1ccccc1Oc1ccccc1`, the GI50 was 3.95 µM (inactive) in the experiment with A498; > 100 µM (inactive) with EKVX; > 100 µM (inactive) with HCT-116; greater than 100 µM with HCT-15; > 100 µM (inactive) in the experiment with HOP-62; > 100 µM (inactive) with IGROV-1. The GI50 in the experiment on KM12, in the experiment on MDA-MB-231, in the experiment on MDA-MB-435, in the experiment with MOLT-4, in the experiment on NCI-H460 and with OVCAR-5 was > 100 µM (inactive) throughout. Besides, the GI50 in the experiment on OVCAR-8 is > 100 µM (inactive); with SK-MEL-2, > 100 µM (inactive); in the experiment with SN12C, > 100 µM (inactive); in the experiment with SNB-75, 30.3 µM (inactive); in the experiment on U-251, > 100 µM (inactive).
As for `Cc1cs/c(=N/c2ccccc2)n1CCC(O)(P(=O)(O)O)P(=O)(O)O`, the GI50 with EKVX is > 100 µM (inactive); in the experiment on HCT-116, > 100 µM (inactive); in the experiment with HCT-15, 63.1 µM; in the experiment with HOP-62 it was > 100 µM (inactive); in the experiment with IGROV-1, > 100 µM (inactive); in the experiment on KM12, > 100 µM (inactive). Moreover, the GI50 with MDA-MB-231 was > 100 µM (inactive); in the experiment on NCI-H460 it was 90.6 µM (inactive); with OVCAR-5, > 100 µM (inactive); in the experiment on OVCAR-8, > 100 µM (inactive); in the experiment on SNB-75 it was > 100 µM (inactive).
`O=C1CC[C@@]2(O)[C@H]3Cc4ccc(-c5cccc(O)c5)c5c4[C@@]2(CCN3CC2CC2)[C@H]1O5`: the GI50 in the experiment with A498 was 21.3 µM (inactive); in the experiment with EKVX, 11.6 µM (inactive); in the experiment on HCT-116 it was 11.4 µM (inactive); with HCT-15, 23.9 µM; in the experiment with HOP-62 it was 24.8 µM (inactive); with IGROV-1, 23.6 µM (inactive). For the same compound, the GI50 in the experiment on KM12 was 10 µM (inactive); with MDA-MB-231 it was 22.4 µM (inactive); in the experiment on MDA-MB-435, 14 µM (inactive); in the experiment on MOLT-4 it was 22.9 µM (inactive); in the experiment with NCI-H460 it was 0.839 µM (active); in the experiment on OVCAR-4, 23.3 µM (inactive). In addition, the GI50 in the experiment on OVCAR-5 is 13.6 µM (inactive); in the experiment on OVCAR-8 it was 19.6 µM (inactive); in the experiment with SK-MEL-2 it was 1.51 µM (inactive); in the experiment on SN12C, 17.6 µM (inactive); in the experiment on U-251, 8.38 µM (inactive).
As to `N#CCN1CCOCCOCCN(CC#N)CCOCCOCC1`, the GI50 with A498 is > 100 µM (inactive); in the experiment on EKVX it was > 100 µM (inactive); with HCT-116 it was > 100 µM (inactive); in the experiment with HCT-15 it was greater than 100 µM; with HOP-62, > 100 µM (inactive); in the experiment on IGROV-1, > 100 µM (inactive). In addition, the GI50 in the experiment on MOLT-4, with NCI-H460, in the experiment with OVCAR-4, with OVCAR-5, in the experiment on OVCAR-8 and in the experiment with SN12C was > 100 µM (inactive) in each case. In addition, the GI50 in the experiment with SNB-75 is > 100 µM (inactive).
As for `O=c1[nH]c(=O)n(COCc2ccccc2)c2ccc([N+](=O)[O-])cc12`, the GI50 with A498 is > 100 µM (inactive); in the experiment on EKVX it was > 100 µM (inactive); with HCT-116, > 100 µM (inactive); with HCT-15, greater than 100 µM; with IGROV-1 it was > 100 µM (inactive); in the experiment on KM12, > 100 µM (inactive). In addition, the GI50 in the experiment with MDA-MB-231 was > 100 µM (inactive); in the experiment on MDA-MB-435 it was > 100 µM (inactive); in the experiment on MOLT-4 it was > 100 µM (inactive); in the experiment with OVCAR-4, 56.5 µM (inactive); in the experiment with OVCAR-5 it was > 100 µM (inactive); in the experiment on OVCAR-8 it was 35.2 µM (inactive). The GI50 in the experiment with SK-MEL-2, with SN12C, in the experiment on SNB-75 and in the experiment with U-251 was > 100 µM (inactive) throughout.
Consider `CCN1c2nc3ccccc3nc2N(CC)c2nc3ccccc3nc21`, for which the GI50 was 57.3 µM (inactive) in the experiment on A498; 19.1 µM (inactive) in the experiment with EKVX; 26.9 µM (inactive) in the experiment on HCT-116; 34.1 µM in the experiment with HCT-15; 23.2 µM (inactive) in the experiment on IGROV-1; 39.5 µM (inactive) in the experiment with KM12. Moreover, the GI50 is 70.8 µM (inactive) in the experiment on MDA-MB-231; 42.3 µM (inactive) in the experiment with MDA-MB-435; 41.8 µM (inactive) with MOLT-4; 32.9 µM (inactive) with NCI-H460; > 100 µM (inactive) with OVCAR-5; 60.1 µM (inactive) in the experiment with OVCAR-8. Also, the GI50 is > 100 µM (inactive) with SK-MEL-2, 47.1 µM (inactive) in the experiment on SN12C, > 10 µM (inactive) with SNB-75 and 48 µM (inactive) with U-251.
Turning to `c1ccc(-c2csc3c2-n2cccc2C3N2CCCC2)cc1` (configuration not stated), the GI50 in the experiment on A498 is 76 µM (inactive); in the experiment on EKVX, 13.8 µM (inactive); in the experiment with HCT-116, 43.8 µM (inactive); in the experiment on HCT-15 it was 93.8 µM; in the experiment with HOP-62, 26.5 µM (inactive); in the experiment with IGROV-1, 21.1 µM (inactive). For the same compound, the GI50 was 30.7 µM (inactive) in the experiment with KM12; 35.6 µM (inactive) in the experiment on MDA-MB-231; 33.7 µM (inactive) with MDA-MB-435; 42.3 µM (inactive) in the experiment on MOLT-4; 44.4 µM (inactive) in the experiment with NCI-H460; 34.4 µM (inactive) in the experiment with OVCAR-4. The GI50 with OVCAR-5 was 20.2 µM (inactive); in the experiment on OVCAR-8, 26.8 µM (inactive); with SK-MEL-2, > 100 µM (inactive); in the experiment with SN12C, > 100 µM (inactive); in the experiment with SNB-75 it was 14.9 µM (inactive); in the experiment with U-251 it was 11.1 µM (inactive).
On to `COc1cc(OCc2ccccc2)c2c(CCC(=O)O)cc(=O)oc2c1.COc1cc(OCc2ccccc2)cc2oc(=O)cc(CCC(=O)O)c12`, for which the GI50 in the experiment on A498 was 14.7 µM (inactive); with EKVX it was 36.8 µM (inactive); in the experiment with HCT-116 it was 54 µM (inactive); in the experiment with HCT-15, 27 µM; in the experiment with IGROV-1, 51.2 µM (inactive); in the experiment with KM12, 43.8 µM (inactive). The GI50 is 29.1 µM (inactive) in the experiment on MDA-MB-231; 61.7 µM (inactive) with MDA-MB-435; 28.1 µM (inactive) with MOLT-4; 47.6 µM (inactive) in the experiment with OVCAR-4; > 100 µM (inactive) in the experiment on OVCAR-5; 37 µM (inactive) in the experiment with OVCAR-8. Further, the values for the GI50 in the experiment on SK-MEL-2, in the experiment with SNB-75 and in the experiment with U-251 were 30.1 µM (inactive), 60.1 µM (inactive) and 55 µM (inactive), respectively.
In the case of `CCCCCCCCCCCCC(O)[C@H]1CC[C@H](C(O)CCCCCC(=O)CCCCC2CC(C(C)=O)C(=O)O2)O1` (some centres not stated), the GI50 with A498 is 13.3 µM (inactive); with EKVX it was 5.69 µM (inactive); with HCT-116, 1.02 µM (active); in the experiment with HCT-15 it was 8.18 µM; in the experiment with HOP-62, 4.98 µM (inactive); with IGROV-1 it was 11 µM (inactive). The GI50 is 8.77 µM (inactive) in the experiment on KM12; 11 µM (inactive) with MDA-MB-231; 8.34 µM (inactive) with MDA-MB-435; 3.03 µM (inactive) in the experiment on NCI-H460; 4.09 µM (inactive) with OVCAR-4; 18.4 µM (inactive) in the experiment on OVCAR-5. For the same compound, the GI50 is 8.97 µM (inactive) in the experiment with OVCAR-8; 13.6 µM (inactive) in the experiment with SK-MEL-2; 7.24 µM (inactive) in the experiment on SN12C; 10.5 µM (inactive) in the experiment with SNB-75; 8.87 µM (inactive) with U-251.
Regarding `CC(C)(C)CNCCCNc1ccc(Cl)cc1`, the GI50 in the experiment on A498 was 14.8 µM (inactive); with EKVX it was 48.6 µM (inactive); in the experiment with HCT-116 it was 55.1 µM (inactive); in the experiment with HCT-15, 93.1 µM; with HOP-62 it was 97.1 µM (inactive); in the experiment on IGROV-1 it was 58.1 µM (inactive). The GI50 was 36 µM (inactive) in the experiment on KM12; 23.2 µM (inactive) in the experiment with MDA-MB-231; 30.1 µM (inactive) in the experiment on MDA-MB-435; 3.33 µM (inactive) in the experiment with MOLT-4; 37.2 µM (inactive) with NCI-H460; 60.8 µM (inactive) with OVCAR-4. Also, the GI50 was 51.8 µM (inactive) in the experiment with OVCAR-5; > 100 µM (inactive) with OVCAR-8; 24 µM (inactive) with SK-MEL-2; 28.7 µM (inactive) with SN12C; > 100 µM (inactive) with U-251.
For the compound `CCOP(=O)(OCC)C(c1ccccc1)N(C(=O)NC(F)(F)F)c1cccc(F)c1` (configuration not stated), the GI50 in the experiment on EKVX is 94.8 µM (inactive); in the experiment on HCT-116, > 100 µM (inactive); in the experiment with HCT-15, 81.5 µM; in the experiment on HOP-62, > 100 µM (inactive); with IGROV-1, 6.93 µM (inactive); with KM12, > 100 µM (inactive). In addition, the GI50 in the experiment with MDA-MB-231 was > 100 µM (inactive); with MDA-MB-435, > 100 µM (inactive); in the experiment on MOLT-4, 81.1 µM (inactive); in the experiment on NCI-H460, > 100 µM (inactive); in the experiment with OVCAR-5, > 10 µM (inactive); in the experiment with OVCAR-8 it was > 100 µM (inactive). Further, the GI50 with SN12C, with SNB-75 and in the experiment on U-251 was > 100 µM (inactive) throughout.
Consider `O=S1(=O)OCCOS(=O)(=O)C1S(=O)(=O)c1ccc2ccccc2c1`, for which the GI50 in the experiment on EKVX is > 100 µM (inactive); with HCT-116, > 100 µM (inactive); in the experiment with HCT-15 it was greater than 100 µM; in the experiment on HOP-62 it was > 100 µM (inactive); in the experiment on IGROV-1, > 100 µM (inactive); in the experiment on KM12 it was > 100 µM (inactive). The GI50 in the experiment on MDA-MB-231, in the experiment with MDA-MB-435, in the experiment with MOLT-4, in the experiment with NCI-H460, in the experiment with OVCAR-4 and in the experiment with OVCAR-5 was > 100 µM (inactive) throughout. The GI50 in the experiment with OVCAR-8, with SK-MEL-2, in the experiment on SN12C and in the experiment with U-251 was > 100 µM (inactive) throughout.
Consider `CN1CCN(CN2C(=O)C3C4C=CC(C3C2=O)C2C3C(=O)N(CN5CCN(C)CC5)C(=O)C3C42)CC1` (configuration not stated), for which the GI50 is 93.1 µM (inactive) in the experiment with A498; 16.5 µM (inactive) in the experiment on HCT-116; 16.9 µM in the experiment with HCT-15; 70 µM (inactive) in the experiment on HOP-62; 34.2 µM (inactive) with IGROV-1; 20.1 µM (inactive) in the experiment with KM12. Further, the GI50 with MOLT-4 was 22.2 µM (inactive); in the experiment with NCI-H460 it was 16.1 µM (inactive); with OVCAR-4, 21.3 µM (inactive); with OVCAR-5, 30.8 µM (inactive); in the experiment with OVCAR-8 it was 17.7 µM (inactive); in the experiment with SN12C it was 20.3 µM (inactive). The figures for the GI50 in the experiment on SNB-75 and in the experiment with U-251 were 27.4 µM (inactive) and 20.8 µM (inactive), respectively.

(Values after ChEMBL document CHEMBL1201862, “PubChem BioAssay data set” (2004).)
